pIC50: −log10 of the molar value. Read-outs that look alike come from different tables or passages of the source.
Assays:
Assay type in all cases: cell-based
[1] = system: NCI-H82 (human small cell lung cancer cell); experiment: Cell viability assay (Promega CellTiter-Glo), inhibitory effect on NCI-H82; settings: 72 h, 3 days of culture
Method: (§1) The inhibitory effect of the compounds prepared in the Examples of the present invention on various tumor cell lines was detected using cell viability assay reagent.
(§2) Cell viability was detected using the Promega CellTiter-Glo kit, cell viability was determined by directly measuring intracellular ATP content. In the experiment, the ICso value of the compounds prepared in the Examples of the present invention on various tumor cell lines was detected.
(§3) Each tumor cell was cultured in relevant medium. After cell passage, the gradient diluted compounds prepared in the Examples of the present invention was added. After 3 days of culture, the relevant IC50 (50% inhibiting concentration) was measured. The name, source and culture conditions of each tumor cell line were as follows:
Cell line NCI-H82 (ATCC, No. HTB-175) was cultured in 10% fetal bovine serum-containing RPMI1640 medium (+P/S).

[2] = system: SF126 (human glioblastoma multiforme cell); experiment: Cell viability assay (Promega CellTiter-Glo), inhibitory effect on SF126
Method: as §1, §2, §3
Cell line SF126 (JCRB, No. IFO50286) was cultured in 10% fetal bovine serum-containing EMEM medium (+P/S).
(§4) The inhibitory effect of the compounds prepared in the Examples of the present invention on various brain tumor cell lines was detected using cell viability assay reagent.
(§5) Cell viability was detected using the Promega CellTiter-Glo kit, cell viability was determined by directly measuring intracellular ATP content. In the experiment, the IC50 value of the compounds prepared in the Examples of the present invention on various brain tumor cell lines was detected.

[3] = system: CFPAC-1 (human pancreatic cancer cell); experiment: Cell viability assay (Promega CellTiter-Glo), inhibitory effect on CFPAC-1; settings: 72 h, 3 days of culture
Method: as §1, §2, §3
Cell line CFPAC-1 (ATCC, No. CRL-1918) was cultured in 10% fetal bovine serum-containing IMDM medium (+P/S).

[4] = system: Kelly (brain neuroblastoma cell); experiment: Cell viability assay (Promega CellTiter-Glo), inhibitory effect on Kelly; settings: Homo sapiens, 72 h, 3 days of culture, read-out: inhibitory effect on brain cell line Kelly (IC50)
Method: as §4, §5, §3
Cell line Kelly (ECACC, No. 92110411) was cultured in 10% fetal bovine serum and 2 mM glutamine-containing RPMI1640 medium.

[5] = system: Con-NCI-H82 cell (NCI-H82 transfected with empty virus vector); experiment: Cell viability assay (Promega CellTiter-Glo), inhibitory effect on Con-NCI-H82 cell; settings: Homo sapiens; NCI-H82 transfected with empty virus vector (control); CellTiter-Glo; read-out: inhibitory effect on Con-NCI-H82 (IC50)
Method: (§6) The role of expression level of NNMT gene and DNMT1 in the sensitivity of NCI-H82 cell to the compounds prepared in the Examples of the present invention was determined
(§7) The expression of NNMT protein in NCI-H82 cell was overexpressed by inserting the NNMT gene into NCI-H82 cell using a viral vector, and the NNMT protein-overexpressing NCI-H82 cell (ov-NNMT NCI-H82 cell) was obtained. The expression of DNMT1 in NCI-H82 cell was knocked down transfecting (the by shRNA nucleotide sequence of shRNA was […] TTTTTG (SEQ ID No: 2)) using a viral vector, and the NCI-H82 cell with low expression of DNMT1 protein (sh-DNMT1 NCI-H82 cell) was obtained. The control NCI-H82 cell (Con-NCI-H82 cell) was obtained by transfecting NCI-H82 cell with empty virus vector without carrying NNMT gene and shRNA. The expressing content of NNMT protein and DNMT1 protein in the Con-NCI-H82 cell, the expressing content of NNMT protein in the ov-NNMT NCI-H82 cell, and the expressing content of DNMT1 protein in the sh-DNMT1 NCI-H82 cell were detected using Western Blot assay (as shown in FIG. 15 and FIG. 16), it could be seen from FIG. 15 and FIG. 16 that the NNMT protein was overexpressed in the ov-NNMT NCI-H82 cell and the expression of DNMT1 protein was knocked down (i.e, low expression) in the sh-DNMT1 NCI-H82 cell compared with the expression level of NNMT protein and DNMT protein in the Con-NCI-H82 cell.

[6] = system: MDA-MB-453 (breast cancer cell); experiment: Cell viability assay (Promega CellTiter-Glo), inhibitory effect on MDA-MB-453; settings: Homo sapiens, 72 h, 3 days of culture
Method: as §1, §2, §3
Cell line MDA-MB-453 (ATCC, No. HTB-131) was cultured in 10% fetal bovine serum-containing Leibovitz's L-15 medium (+P/S).

[7] = system: ov-NNMT NCI-H82 cell (NNMT protein-overexpressing NCI-H82); experiment: Cell viability assay (Promega CellTiter-Glo), inhibitory effect on ov-NNMT NCI-H82 cell; settings: Homo sapiens
Method: as §6, §7

[8] = system: SW48 (human colon adenocarcinoma cell); experiment: Cell viability assay (Promega CellTiter-Glo), inhibitory effect on SW48; settings: 72 h, 3 days of culture
Method: as §1, §2, §3
Cell line SW48 (ATCC, No. CCL-231) was cultured in 10% fetal bovine serum-containing Leibovitz's L-15 medium (+P/S).

[9] = system: 786-O (clear cell renal cell adenocarcinoma cell); experiment: Cell viability assay (Promega CellTiter-Glo), inhibitory effect on 786-O; settings: Homo sapiens, 786-0, 72 h, 3 days of culture
Method: as §1, §2, §3
Cell line 786-0 (ATCC, No. CRL-1932) was cultured in 10% fetal bovine serum-containing RPMI1640 medium (+P/S).

[10] = system: NB-1 (brain neuroblastoma cell); experiment: Cell viability assay (Promega CellTiter-Glo), inhibitory effect on NB-1; settings: Homo sapiens, 72 h, 3 days of culture, read-out: inhibitory effect on brain cell line NB-1 (IC50)
Method: as §4, §5, §3
Cell line NB-1 (ATCC, No. HTB-131) was cultured in 10% fetal bovine serum-containing Leibovitz's L-15 medium (+P/S).

[11] = system: G-401 (human renal carcinoma Wilms cell); experiment: Cell viability assay (Promega CellTiter-Glo), inhibitory effect on G-401; settings: 72 h, 3 days of culture
Method: as §1, §2, §3
Cell line G-401 (ATCC, No. CRL-1441) was cultured in 10% fetal bovine serum-containing McCoy's 5a medium (+P/S).

[12] = system: GB-1 (human brain glioblastoma cell); experiment: Cell viability assay (Promega CellTiter-Glo), inhibitory effect on GB-1; settings: 72 h, 3 days of culture
Method: as §1, §2, §3
Cell line GB-1 (JCRB, No. IFO50489) was cultured in 10% fetal bovine serum-containing DMEM medium (+P/S).
as §4, §5

[13] = system: sh-DNMT1 NCI-H82 cell (DNMT1 knocked down NCI-H82); experiment: Cell viability assay (Promega CellTiter-Glo), inhibitory effect on sh-DNMT1 NCI-H82 cell; settings: Homo sapiens, NCI-H82 with DNMT1 knocked down by shRNA
Method: as §6, §7

[14] = system: D341 Med (cerebellar medulloblastoma cell); experiment: Cell viability assay (Promega CellTiter-Glo), inhibitory effect on D341 Med; settings: Homo sapiens, 72 h, 3 days of culture, read-out: inhibitory effect on brain cell line D341 Med (IC50)
Method: as §4, §5, §3
Cell line D341 Med (ATCC, No. HTB-187) was cultured in 20% fetal bovine serum-containing EMEM medium (+P/S).

[15] = 72 h, SF-126, 3 days of culture, Table 3, read-out: inhibitory effect on SF-126 (IC50)
[16] = SF-126, 72 h, SF126, 3 days of culture, Table 4, read-out: inhibitory effect on brain cell line SF126 (IC50)
[17] = Table 3, read-out: inhibitory effect on GB-1 (IC50)
[18] = Table 4, read-out: inhibitory effect on brain cell line GB-1 (IC50)

pIC50 [1]	pIC50 [2, 15]	pIC50 [2, 16]	pIC50 [3]	pIC50 [4]	pIC50 [5]	pIC50 [6]	pIC50 [7]	pIC50 [8]	pIC50 [9]	pIC50 [10]	pIC50 [11]	pIC50 [12, 17]	pIC50 [12, 18]	pIC50 [13]	pIC50 [14]	SMILES
6.44	5.29	5.29	5.08	6.23	6.44	6.40	6.04	6.31	5.27	6.92	6.38	5.19	5.19	5.86	6.01	CCCCCc1c2[n+](cc3c(OC)c(OC)ccc13)CCc1cc3c(cc1-2)OCO3 [compound AB31758]
6.57	5.40	5.40	5.09	6.39	6.57	6.51	6.19	6.51	5.50	6.92	6.51	5.46	5.46	5.93	6.07	CCCCCCc1c2[n+](cc3c(OC)c(OC)ccc13)CCc1cc3c(cc1-2)OCO3 [compound AB31759]
6.82	5.41	5.41	5.57	6.64	6.82	6.60	6.46	6.68	5.80	7.05	6.82	5.44	5.44	6.15	6.15	CCCCCCCc1c2[n+](cc3c(OC)c(OC)ccc13)CCc1cc3c(cc1-2)OCO3 [compound AB31760]
5.87	5.01	5.01	4.66	5.89	5.87	5.97	5.54	5.94	5.04	6.52	5.90	4.83	4.83	5.39	5.79	COc1ccc2c(CCC(C)C)c3[n+](cc2c1OC)CCc1cc2c(cc1-3)OCO2 [compound AB31765]
6.59	5.43	5.43	5.37	6.52	6.59	6.57	6.19	6.43	5.68	6.92	6.74	5.44	5.44	6.01	6.24	CCCCCCc1c2c(OC)c(OC)ccc2cc2[n+]1CCc1cc3c(cc1-2)OCO3 [compound AB31767]
5.73	4.80	4.80	4.77	5.66	5.73	6.46	5.40	5.86	4.68	5.98	5.69	4.95	4.95	5.24	5.78	COc1ccc2cc3[n+](cc2c1OC(=O)CC12CC4CC(CC(C4)C1)C2)CCc1cc2c(cc1-3)OCO2 [compound AB31771]
6.18	5.01	5.01	4.75	5.94	6.18	6.05	5.82	6.10	5.09	6.64	6.06	4.90	4.90	5.70	5.73	COc1ccc2c(CCc3ccccc3)c3[n+](cc2c1OC)CCc1cc2c(cc1-3)OCO2 [compound AB31780]
6.48	5.13	5.13	4.95	6.14	6.48	6.12	5.94	6.40	5.27	6.85	6.43	5.07	5.07	5.85	6.09	COc1ccc2c(CCCc3ccccc3)c3[n+](cc2c1OC)CCc1cc2c(cc1-3)OCO2 [compound AB31781]
6.47	5.37	5.37	5.18	6.16	6.47	6.55	6.06	6.32	5.39	7.10	6.31	5.37	5.37	5.88	6.48	COc1ccc2cc3[n+](cc2c1OCCCCCCBr)CCc1cc2c(cc1-3)OCO2 [compound AB31787]
6.15	4.96	4.96	4.77	5.89	6.15	5.99	5.62	6.16	4.97	6.51	6.20	4.78	4.78	5.53	5.73	COc1ccc2c(Cc3ccc(OC(F)(F)F)cc3)c3[n+](cc2c1OC)CCc1cc2c(cc1-3)OCO2 [compound AB31788]

Source: patent publication US20250195502A1, “APPLICATION OF TETRACYCLIC COMPOUND IN TREATMENT OF TUMORS” (SHANGHAI SHIJIANG BIOTECHNOLOGY CO., LTD, priority 2022, published 2025)
